# Reference: patent US6599905B2, “Pyrazine compounds” (SmithKline Beecham Corporation, priority 1997, dated 2003)
row,melting point [°C],Structure (SMILES)
1,277 to 279,"N#Cc1nc(-c2cc(Cl)cc(Cl)c2Cl)c(N)nc1N [Example 17, 5-Cyano-2,6-Diamino-3-(2,3,5-trichlorophenyl)pyrazine]"
2,240 to 244,"Nc1nc(NC(=O)C2CC2)cnc1-c1cc(Cl)cc(Cl)c1Cl [Example 9, 2-Amino-6-cyclopropylcarbonylamino-3-(2,3,5-trichlorophenyl)pyrazine]"
3,227 to 229,"CC(C)C(=O)Nc1cnc(-c2cc(Cl)cc(Cl)c2Cl)c(NC(=O)C(C)C)n1 [Example 10, 2,6-Diisopropylcarbonylamino-3-(2,3,5-trichlorophenyl) pyrazine]"
4,212 to 214,"O=C(Nc1cnc(-c2cc(Cl)cc(Cl)c2Cl)c(NC(=O)C2CC2)n1)C1CC1 [Example 9, 2,6-Dicyclopropylcarbonylamino-3-(2,3,5-trichlorophenyl) pyrazine]"
